Measured values taken from patent US4774232A, “Bile-substituting method of treatment for the promotion of fat digestion” (Chinoin Gyogyszer Es Vegyeszeti Termak Ek Gyara Rt, priority 1985, dated 1988).

Assays:
[1] = test system: bile-deficient rats; test: Absorption of 3H-stearic acid with oral DIMEB in bile-deficient rats (Example 11); assay type: in vivo, CFY female rats; settings: for Radioactivity in 10 ml of blood: 23.5 mg 3H-stearic acid + 60 mg DIMEB oral
Description: The substitution by DIMEB of the bile in bile-deficiency was studied in rats after ligating the bile duct.
After being starved for 24 hours, the animals (CFY female rats with an average body weight of 150 g) were subjected to a bile duct-ligation under nembutal anaesthesia. The absorption was investigated in the 48th hour after starving the animals overnight. The animals were starved in the course of the examination, too, but received water ad libitum. One group (consisting of 4 animals) received 22.2 mg of ^3 H-stearic acid (specific radioactivity: 92.5 kBq/mg), whereas the other group (consisting of 4 animals) was administered 23.5 mg of ^3 H-stearic acid and 60 mg of DIMEB in 2 ml of distilled water. The substances were suspended ultrasonically in the distilled water. Thereafter, the radioactivity level of the blood was measured at various intervals by using the liquid scintillation method (Table XII).

[2] = test system: lipase (pancreas suspension); test: In vitro enzymatic hydrolysis of triglycerides: olive oil, pancreas suspension; assay type: biochemical; settings: for 0.005 N NaOH consumed: series Bile I, olive oil, pancreas suspension, 37° C.
Description: In an aqueous medium, lipase is capable to split triglycerides only at an extraordinarily low rate. Therefore, an organic solvent should be added to the system, by which the solubility of the triglycerides is increased, but the enzyme activity is diminished. Alternatively, some type of detergent, suitably bile has to be used. The effect of bile was compared to that of DIMEB at 37° C. in such a way that, the quantity of the formed free fatty acids in the samples taken from the reaction mixture at various intervals was titrated by using sodium hydroxide solution. The composition of the reaction mixture was as follows:
a total volume of 1.5 ml contained 4 μmoles of the substrate (triolein or olive oil), 10 mg of bovine serum albumin, 75 μmoles of sodium chloride, 50 μmoles of a phosphate buffer solution (pH 7.4) and 0.25 ml of an enzyme solution. A lipase of the Serva Company (in an 1 mg/10 ml solution) or a pancreas powder (0.5 g was suspended in 10 ml of distilled water and the slightly opalescent solution obtained after filtration was used) were employed as enzyme preparations.
The composition of the solutions to be tested were as follows:
0.5 ml of buffer+10 mg of serum albumin+3.54 mg of substrate+0.25 ml of enzyme solution plus
(a) 0.25 ml of diluted bile+0.50 ml of distilled water; or
(b) 50 mg of dimethyl-β-cyclodextrin dissolved in 0.75 ml of water; or […]

[3] = test system: bile duct-ligated rats; test: Substitution of the bile in rats: plasma total lipid after single fat dose; assay type: in vivo, rats (Etymis rattus var. albino)
Description: In the first series of experiments, the total lipid concentration of the plasma was investigated in bile-deficient rats.
The experimental rats (Etymis rattus var. albino) were kept on a standard food for 10 days before the experiment. The composition of this animal food was as follows:
The bile duct was ligated under ether anaesthesia.
In the 48th hour following the operation, 1.5 ml of swine fat or 1.5 ml of swine fat together with 75 mg of DIMEB were orally administered. After 4.5 hours, the animals were decapitated and the total lipid concentration of the plasma was determined according to the method of de La Huerga et al. [Amer. J. Clin. Pathol. 23, 1163 (1953)]

## COC[C@H]1O[C@@H]2O[C@H]3[C@H](O)[C@@H](OC)[C@@H](O[C@H]4[C@H](O)[C@@H](OC)[C@@H](O[C@H]5[C@H](O)[C@@H](OC)[C@@H](O[C@H]6[C@H](O)[C@@H](OC)[C@@H](O[C@H]7[C@H](O)[C@@H](OC)[C@@H](O[C@H]8[C@H](O)[C@@H](OC)[C@@H](O[C@H]1[C@H](O)[C@H]2OC)O[C@@H]8COC)O[C@@H]7COC)O[C@@H]6COC)O[C@@H]5COC)O[C@@H]4COC)O[C@@H]3COC [DIMEB, heptakis(2,6-di-O-methyl)-β-cyclodextrin]
[1]; 1 h, animal 5
  Radioactivity in 10 ml of blood: 1.18 percentage
[1]; 1 h, animal 6
  Radioactivity in 10 ml of blood: 1.41 percentage
[1]; 1 h, animal 7
  Radioactivity in 10 ml of blood: 1.66 percentage
[1]; 1 h, animal 8
  Radioactivity in 10 ml of blood: 0.50 percentage
[1]; 1 h, mean
  Radioactivity in 10 ml of blood: 1.19 percentage
[1]; 2 h, animal 5
  Radioactivity in 10 ml of blood: 1.46 percentage
[1]; 2 h, animal 6
  Radioactivity in 10 ml of blood: 1.52 percentage
[1]; 2 h, animal 7
  Radioactivity in 10 ml of blood: 1.52 percentage
[1]; 2 h, animal 8
  Radioactivity in 10 ml of blood: 0.64 percentage
[1]; 2 h, mean
  Radioactivity in 10 ml of blood: 1.28 percentage
[1]; 3 h, animal 5
  Radioactivity in 10 ml of blood: 1.29 percentage
[1]; 3 h, animal 6
  Radioactivity in 10 ml of blood: 1.63 percentage
[1]; 3 h, animal 7
  Radioactivity in 10 ml of blood: 1.37 percentage
[1]; 3 h, animal 8
  Radioactivity in 10 ml of blood: 0.61 percentage
[1]; 3 h, mean
  Radioactivity in 10 ml of blood: 1.22 percentage
[1]; 4 h, animal 5
  Radioactivity in 10 ml of blood: 1.42 percentage
[1]; 4 h, animal 6
  Radioactivity in 10 ml of blood: 1.67 percentage
[1]; 4 h, animal 7
  Radioactivity in 10 ml of blood: 1.56 percentage
[1]; 4 h, animal 8
  Radioactivity in 10 ml of blood: 0.60 percentage
[1]; 4 h, mean
  Radioactivity in 10 ml of blood: 1.31 percentage
[1]; 5 h, animal 5
  Radioactivity in 10 ml of blood: 1.39 percentage
[1]; 5 h, animal 6
  Radioactivity in 10 ml of blood: 1.73 percentage
[1]; 5 h, animal 7
  Radioactivity in 10 ml of blood: 1.54 percentage
[1]; 5 h, animal 8
  Radioactivity in 10 ml of blood: 0.69 percentage
[1]; 5 h, mean
  Radioactivity in 10 ml of blood: 1.34 percentage
[1]; 6 h, animal 5
  Radioactivity in 10 ml of blood: 1.41 percentage
[1]; 6 h, animal 6
  Radioactivity in 10 ml of blood: 1.92 percentage
[1]; 6 h, animal 7
  Radioactivity in 10 ml of blood: 1.76 percentage
[1]; 6 h, animal 8
  Radioactivity in 10 ml of blood: 0.73 percentage
[1]; 6 h, mean
  Radioactivity in 10 ml of blood: 1.45 percentage
[1]; 8 h, animal 5
  Radioactivity in 10 ml of blood: 1.43 percentage
[1]; 8 h, animal 6
  Radioactivity in 10 ml of blood: 1.90 percentage
[1]; 8 h, animal 7
  Radioactivity in 10 ml of blood: 1.85 percentage
[1]; 8 h, animal 8
  Radioactivity in 10 ml of blood: 0.72 percentage
[1]; 8 h, mean
  Radioactivity in 10 ml of blood: 1.47 percentage
[1]; 10 h, animal 5
  Radioactivity in 10 ml of blood: 1.57 percentage
[1]; 10 h, animal 6
  Radioactivity in 10 ml of blood: 1.56 percentage
[1]; 10 h, animal 7
  Radioactivity in 10 ml of blood: 1.45 percentage
[1]; 10 h, animal 8
  Radioactivity in 10 ml of blood: 0.89 percentage
[1]; 10 h, mean
  Radioactivity in 10 ml of blood: 1.37 percentage
[1]; 24 h, animal 5
  Radioactivity in 10 ml of blood: 1.50 percentage
[1]; 24 h, animal 6
  Radioactivity in 10 ml of blood: 1.94 percentage
[1]; 24 h, animal 7
  Radioactivity in 10 ml of blood: 1.59 percentage
[1]; 24 h, animal 8
  Radioactivity in 10 ml of blood: 1.95 percentage
[1]; 24 h, mean
  Radioactivity in 10 ml of blood: 1.74 percentage
[1]; 24th hour
  Blood level relative to animals treated with stearic acid alone: 2 times
[1]; time not given
  Blood radioactivity relative to animals treated with stearic acid alone: 4.4 times
[2]; in vitro, Table 1 overall
  Effect on the action of lipase: accelerate the action of lipase to a significant extent
[2]; reaction time 0.5 hour
  0.005 N NaOH consumed: 1.74 mL
[2]; reaction time 1 hour
  0.005 N NaOH consumed: 2.00 mL
[2]; reaction time 2 hour
  0.005 N NaOH consumed: 2.20 mL
[2]; reaction time 19 hour
  0.005 N NaOH consumed: 4.77 mL
[3]; bile duct-ligated rats, 1.5 ml fat + 75 mg DIMEB
  Increase of total lipid fraction in the blood plasma: 5 fold
[3]; rats after bile duct-ligation, 1.5 ml fat + 75 mg DIMEB oral, after 4.5 hours
  Total lipid concentration of the blood plasma: 1266.6 ± 86.5 mg/100 ml
